The source made the active and inactive calls. No cut-off for these calls is given here.
Tests used:
[1] = molecular target: Human immunodeficiency virus type 1 reverse transcriptase (Human immunodeficiency virus 1) (UniProt Q72547); experiment: Noncovalent binding affinity to wild type recombinant HIV1 HXB2 reverse transcriptase by protein X-ray crystallography analysis
[2] = tested on: Human immunodeficiency virus 1; experiment: Antiviral activity against HIV1 NL4-3 harboring reverse transcriptase V108I, E138K mutant infected in human SupT1 cells derived from 9 viral passages with lersivirine assessed as inhibition of viral replication after 21 days relative to drug sensitive HIV1 NL4-3; type: functional, SUP-T1
[3] = tested on: Human immunodeficiency virus 1; experiment: Ratio of EC50 for wild type HIV1 NL4-3 to EC50 for HIV1 NL4-3 harboring reverse transcriptase E233V mutant; type: functional
[4] = molecular target: Adrenergic receptor alpha-2 (Homo sapiens) (UniProt P08913+P18825+P18089); experiment: Inhibition of human adrenergic alpha2 receptor at up to 10 uM
Homo sapiens [5] = species on record: Homo sapiens; experiment: Inhibition of human tyrosine hydroxylase at up to 10 uM
[6] = molecular target: Beta-2 adrenergic receptor (Homo sapiens) (UniProt P07550); experiment: Inhibition of human adrenergic beta2 receptor at up to 10 uM
Sequence of Beta-2 adrenergic receptor (Homo sapiens) (P07550 whole entry, looked up): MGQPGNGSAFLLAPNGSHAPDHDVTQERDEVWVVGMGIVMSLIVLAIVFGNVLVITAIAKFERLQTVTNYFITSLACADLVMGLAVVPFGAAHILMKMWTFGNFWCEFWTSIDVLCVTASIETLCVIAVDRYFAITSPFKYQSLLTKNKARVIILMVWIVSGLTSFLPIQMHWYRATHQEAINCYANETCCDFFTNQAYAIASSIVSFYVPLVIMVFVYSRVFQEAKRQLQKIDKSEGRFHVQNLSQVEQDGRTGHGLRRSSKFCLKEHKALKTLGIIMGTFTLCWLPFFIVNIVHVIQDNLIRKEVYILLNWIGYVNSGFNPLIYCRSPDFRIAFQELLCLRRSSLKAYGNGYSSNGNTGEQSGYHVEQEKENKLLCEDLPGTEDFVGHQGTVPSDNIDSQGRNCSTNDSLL

Homo sapiens [7] = species on record: Homo sapiens; experiment: Inhibition of human L-type calcium channel diltiazem binding site at up to 10 uM
[8] = tested on: Human immunodeficiency virus 1; experiment: Antiviral activity against HIV1 NL4-3 harboring reverse transcriptase L100I mutant infected in human HeLaP4 cells assessed as inhibition of viral replication after 5 days by beta-galactosidase reporter assay; type: functional, organism-based
[9] = tested on: Human immunodeficiency virus 1; experiment: Antiviral activity against wild type HIV1 NL4-3 infected in human HeLaP4 cells assessed as inhibition of viral replication after 5 days by beta-galactosidase reporter assay; type: functional, organism-based; conditions: Human immunodeficiency virus 1, NL4-3, HeLaP4, 120 h
[10] = tested on: Human immunodeficiency virus 1; experiment: Ratio of EC50 for wild type HIV1 NL4-3 to EC50 for HIV1 NL4-3 harboring reverse transcriptase L234I mutant; type: functional
[11] = tested on: Human immunodeficiency virus 1; experiment: Antiviral activity against HIV1 NL4-3 harboring reverse transcriptase Y188C mutant infected in human HeLaP4 cells assessed as inhibition of viral replication after 5 days by beta-galactosidase reporter assay; type: functional, organism-based
[12] = tested on: Human immunodeficiency virus 1; type: functional, organism-based; conditions: NL4-3, HeLaP4
[13] = tested on: Human immunodeficiency virus 1; experiment: Ratio of EC50 for wild type HIV1 NL4-3 to EC50 for HIV1 NL4-3 harboring reverse transcriptase L100I mutant; type: functional
[14] = tested on: Human immunodeficiency virus 1; experiment: Ratio of EC50 for wild type HIV1 NL4-3 to EC50 for HIV1 NL4-3 harboring reverse transcriptase F227L mutant; type: functional
[15] = tested on: Human immunodeficiency virus 1; experiment: Antiviral activity against HIV1 NL4-3 harboring reverse transcriptase Y181I mutant infected in human HeLaP4 cells assessed as inhibition of viral replication after 5 days by beta-galactosidase reporter assay; type: functional, organism-based
[16] = molecular target: 5-hydroxytryptamine receptor 1A (Homo sapiens) (UniProt P08908); experiment: Inhibition of human 5-HT1A receptor at up to 10 uM
Sequence of 5-hydroxytryptamine receptor 1A (Homo sapiens) (P08908 whole entry): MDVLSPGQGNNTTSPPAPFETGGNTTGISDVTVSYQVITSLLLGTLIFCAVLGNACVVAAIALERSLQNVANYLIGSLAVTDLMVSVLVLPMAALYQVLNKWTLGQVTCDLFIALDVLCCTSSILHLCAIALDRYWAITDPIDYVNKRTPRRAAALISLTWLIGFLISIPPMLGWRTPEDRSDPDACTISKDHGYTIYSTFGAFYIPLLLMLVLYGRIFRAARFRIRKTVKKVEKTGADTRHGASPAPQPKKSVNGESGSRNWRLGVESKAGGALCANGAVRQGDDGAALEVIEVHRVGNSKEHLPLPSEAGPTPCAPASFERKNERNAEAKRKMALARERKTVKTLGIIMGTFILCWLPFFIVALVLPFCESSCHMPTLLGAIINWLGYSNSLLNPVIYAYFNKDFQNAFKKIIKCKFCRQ

[17] = tested on: Human immunodeficiency virus 1; experiment: Antiviral activity against HIV1 NL4-3 harboring reverse transcriptase P236L mutant infected in human HeLaP4 cells assessed as inhibition of viral replication after 5 days by beta-galactosidase reporter assay; type: functional, organism-based
[18] = molecular target: Muscarinic acetylcholine receptor (Homo sapiens) (UniProt P20309+P08173+P11229+P08172+P08912); experiment: Inhibition of human non-selective muscarinic receptor at up to 10 uM; type: protein assay
[19] = tested on: Human immunodeficiency virus 1; experiment: Antiviral activity against HIV1 NL4-3 infected in human MT2 cells assessed as inhibition of virus-induced cell death at 0.5 multiplicities of infection after 6 days; type: functional, organism-based; conditions: Human immunodeficiency virus 1, NL4-3, MT2, 144 h
Homo sapiens [20] = species on record: Homo sapiens; experiment: Inhibition of human L-type calcium channel verapamil binding site at up to 10 uM
[21] = tested on: Human immunodeficiency virus 1; experiment: Antiviral activity against HIV1 NL4-3 harboring reverse transcriptase L100I, K103Q, H221H/Y mutant infected in human SupT1 cells derived from 11 viral passages with efavirenz assessed as inhibition of viral replication after 21 days relative to drug sensitive HIV1 NL4-3; type: functional, SUP-T1
[22] = Inhibition of human phosphodiesterase 4
[23] = tested on: Human immunodeficiency virus 1; experiment: Ratio of EC50 for wild type HIV1 NL4-3 to EC50 for HIV1 NL4-3 harboring reverse transcriptase V106A, F227L mutant; type: functional
[24] = tested on: Human immunodeficiency virus 1; experiment: Ratio of EC50 for wild type HIV1 NL4-3 to EC50 for HIV1 NL4-3 harboring reverse transcriptase F227C mutant; type: functional
[25] = molecular target: Acetylcholinesterase (Homo sapiens) (UniProt P22303); experiment: Inhibition of human acetylcholinesterase at up to 10 uM
Sequence of Acetylcholinesterase (Homo sapiens) (P22303 whole entry): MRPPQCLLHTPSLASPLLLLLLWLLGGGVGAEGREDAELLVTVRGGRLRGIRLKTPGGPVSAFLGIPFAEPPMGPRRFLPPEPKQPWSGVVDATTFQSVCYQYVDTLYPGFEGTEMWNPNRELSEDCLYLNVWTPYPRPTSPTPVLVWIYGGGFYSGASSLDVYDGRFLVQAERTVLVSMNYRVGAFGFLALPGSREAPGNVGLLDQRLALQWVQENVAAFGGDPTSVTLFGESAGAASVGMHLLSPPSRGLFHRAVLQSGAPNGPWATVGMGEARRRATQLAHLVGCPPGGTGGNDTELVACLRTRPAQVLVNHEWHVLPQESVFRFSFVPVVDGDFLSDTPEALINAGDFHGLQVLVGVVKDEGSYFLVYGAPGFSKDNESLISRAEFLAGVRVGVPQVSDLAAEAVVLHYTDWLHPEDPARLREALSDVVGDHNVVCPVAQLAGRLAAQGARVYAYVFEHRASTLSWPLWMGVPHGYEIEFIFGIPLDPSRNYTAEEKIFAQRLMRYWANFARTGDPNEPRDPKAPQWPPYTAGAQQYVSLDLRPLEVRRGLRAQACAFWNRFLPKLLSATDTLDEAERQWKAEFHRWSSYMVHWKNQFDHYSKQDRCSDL

[26] = tested on: Human immunodeficiency virus 1; experiment: Ratio of EC50 for wild type HIV1 NL4-3 to EC50 for HIV1 NL4-3 harboring reverse transcriptase M184V mutant; type: functional
[27] = tested on: Human immunodeficiency virus 1; experiment: Antiviral activity against HIV1 NL4-3 harboring reverse transcriptase E233V mutant infected in human HeLaP4 cells assessed as inhibition of viral replication after 5 days by beta-galactosidase reporter assay; type: functional, organism-based
[28] = Cytotoxicity against human HeLaP4 cells at 200 uM by aqueous nonradioactive cell proliferation assay; type: cell-based; conditions: helap4, 200 µM
Homo sapiens [29] = species on record: Homo sapiens; experiment: Inhibition of human neuronal nicotinic […] receptor at up to 10 uM
Homo sapiens [30] = species on record: Homo sapiens; experiment: Inhibition of human Phosphodiesterase 3 at up to 10 uM
[31] = tested on: Human immunodeficiency virus 1; experiment: Ratio of EC50 for wild type HIV1 NL4-3 to EC50 for HIV1 NL4-3 harboring reverse transcriptase Y181I, Y188L mutant; type: functional
PBMC = experiment: Cytotoxicity against human PBMC cells by aqueous nonradioactive cell proliferation assay; type: cell-based
[32] = tested on: Human immunodeficiency virus 1; experiment: Antiviral activity against HIV1 NL4-3 harboring reverse transcriptase M184V mutant infected in human HeLaP4 cells assessed as inhibition of viral replication after 5 days by beta-galactosidase reporter assay; type: functional, organism-based
[33] = molecular target: Human immunodeficiency virus type 1 reverse transcriptase (Human immunodeficiency virus 1, UniProt Q72547, K103N); experiment: Inhibition of HIV1 HXB2 reverse transcriptase K103N mutant activity by primer extension assay
[34] = molecular target: Glutamate [NMDA] receptor (Homo sapiens) (UniProt Q05586+Q12879+Q13224+O15399+O60391+Q14957+Q8TCU5); experiment: Inhibition of human NMDA receptor at up to 10 uM
[35] = tested on: Human immunodeficiency virus 1; experiment: Antiviral activity against HIV1 NL4-3 harboring reverse transcriptase V106A mutant infected in human HeLaP4 cells assessed as inhibition of viral replication after 5 days by beta-galactosidase reporter assay; type: functional, organism-based
[36] = tested on: Human immunodeficiency virus type 1 reverse transcriptase (Human immunodeficiency virus 1), Q72547 [Y188C]; experiment: Inhibition of HIV1 histidine-tagged reverse transcriptase Y188C mutant activity by primer extension assay
[37] = tested on: Human immunodeficiency virus 1; experiment: Antiviral activity against HIV1 NL4-3 harboring reverse transcriptase K103N mutant infected in human HeLaP4 cells assessed as inhibition of viral replication after 5 days by beta-galactosidase reporter assay; type: functional, organism-based; conditions: Human immunodeficiency virus 1, NL4-3, HeLaP4, 120 h
[38] = molecular target: D(2) dopamine receptor (Homo sapiens) (UniProt P14416); experiment: Inhibition of human dopamine D2 receptor at up to 10 uM
Sequence of D(2) dopamine receptor (Homo sapiens) (P14416 whole entry): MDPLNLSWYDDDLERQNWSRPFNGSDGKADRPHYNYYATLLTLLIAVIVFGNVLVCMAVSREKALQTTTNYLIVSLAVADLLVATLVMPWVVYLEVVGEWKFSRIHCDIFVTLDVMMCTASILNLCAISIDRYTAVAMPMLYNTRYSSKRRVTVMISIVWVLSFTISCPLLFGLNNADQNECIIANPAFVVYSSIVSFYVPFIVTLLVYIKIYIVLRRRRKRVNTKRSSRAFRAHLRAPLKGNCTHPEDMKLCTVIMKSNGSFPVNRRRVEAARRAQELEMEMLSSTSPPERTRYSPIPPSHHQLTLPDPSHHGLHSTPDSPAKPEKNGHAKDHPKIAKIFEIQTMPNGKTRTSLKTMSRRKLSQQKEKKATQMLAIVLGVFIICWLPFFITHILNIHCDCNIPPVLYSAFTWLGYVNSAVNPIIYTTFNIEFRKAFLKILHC

[39] = Ratio of CC30 for human HeLaP4 cells to EC90 for HIV1
[40] = tested on: Human immunodeficiency virus 1; experiment: Ratio of EC50 for wild type HIV1 NL4-3 to EC50 for HIV1 NL4-3 harboring reverse transcriptase E138K mutant; type: functional

CCc1nn(CCO)c(CC)c1Oc1cc(C#N)cc(C#N)c1 [LERSIVIRINE]
Activity [1]: Active
fold change (FC) [2]: 14
Ratio EC50 [3]: 10
inhibition [4]: inactive
inhibition (Homo sapiens [5]): inactive
inhibition [6]: inactive
inhibition (Homo sapiens [7]): inactive
inhibition [8]: Active
EC50 [9]: 3.96 nM
Ratio EC50 [10]: 20
inhibition [11]: Active
inhibition [12]: Active
Ratio EC50 [13]: 10
Ratio EC50 [14]: 10
inhibition [15]: Active
inhibition [16]: inactive
inhibition [17]: Active
inhibition [18]: inactive
EC50 [19]: 0.5 nM
inhibition (Homo sapiens [20]): inactive
fold change (FC) [21]: 5
IC50 [22]: 3000 nM
Ratio EC50 [23]: >200
Ratio EC50 [24]: 55
inhibition [25]: inactive
Ratio EC50 [26]: 10
inhibition [27]: Active
Activity [28]: Non-toxic
inhibition (Homo sapiens [29]): inactive
inhibition (Homo sapiens [30]): inactive
Ratio EC50 [31]: 65
CC30 (PBMC): 96900 nM
inhibition [32]: Active
IC50 [33]: 215 nM
inhibition [34]: inactive
inhibition [35]: Active
inhibition [36]: Active
EC50 [37]: 7.05 nM
inhibition [38]: inactive
Ratio [39]: >7092
Ratio EC50 [40]: 10
